# Reference: publication PMC6450699 (Archives of biochemistry and biophysics, 2018)
# Biological target: human cytochrome P450 3A4 (CYP3A4) (Homo sapiens, UniProt P08684, C58T/C64A/C98S/F215C/C239S/C468G)
# Test: purified enzyme with CPR: fluorescent HFC production and NADPH consumption
# Assay type: biochemical
# Sequence of human cytochrome P450 3A4 (CYP3A4) (P08684 13-503 C58T/C64A/C98S/F215C/C239S/C468G): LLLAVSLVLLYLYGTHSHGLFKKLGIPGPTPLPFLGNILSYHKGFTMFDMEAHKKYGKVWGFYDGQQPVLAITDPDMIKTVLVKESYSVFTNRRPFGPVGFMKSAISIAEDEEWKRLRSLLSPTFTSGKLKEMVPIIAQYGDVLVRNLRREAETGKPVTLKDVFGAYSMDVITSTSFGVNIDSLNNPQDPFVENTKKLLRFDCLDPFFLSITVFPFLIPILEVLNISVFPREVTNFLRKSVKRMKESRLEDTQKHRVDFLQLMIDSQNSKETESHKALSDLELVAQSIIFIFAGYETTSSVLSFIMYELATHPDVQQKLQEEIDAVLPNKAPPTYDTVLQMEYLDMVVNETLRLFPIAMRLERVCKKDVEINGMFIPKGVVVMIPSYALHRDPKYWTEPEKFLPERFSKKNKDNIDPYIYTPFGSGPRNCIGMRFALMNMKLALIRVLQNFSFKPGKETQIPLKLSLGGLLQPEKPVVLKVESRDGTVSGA
smiles,measurement,value
"O=c1cc(C(F)(F)F)c2ccc(OCc3ccccc3)cc2o1 [BFC, 7-benzyloxy-4-trifluoromethylcoumarin]",HFC produced^b,0.0044 ± 0.0008 μmol/min/μmol enzyme
